Measurements taken from patent US20180221369A1, “COMPOSITIONS AND METHODS FOR TREATING FIBROSING DISORDERS AND CANCER” (Cedars-Sinai Medical Center, priority 2014, published 2018).

Key:
[1] = tested on: normal stellate cells (hNP); details: SDF-1 0.025 μM, 2 h, AMD3100 5-50 μM 60 minutes
Experimental: The migration assays were performed by using transwell migration assays with polycarbonate membrane inserts with 8 μm pore size that is optimal for fibroblast-like cell migration (Corning Incorporated, NY, cat #3422). Stellate cells were treated with siRNA (100 nM) for 48 h, or with increasing concentrations of AMD3100 (5 μM-50 μM) or INNO-406 (10 nM-100 nM) for 60 minutes. Then, cells were placed in the migration upper chambers, in the presence or absence of SDF-1 (0.025 μM) with 2% FBS in the lower chambers. After 2 h of incubation, cells migrated to the lower chamber were counted, and the chemotactic index was determined as follows:
(number of cells migrating to SDF-1 chemokine)/(number of cells migrating to medium alone)
To distinguish chemotaxis versus chemokinesis, a control checkerboard analysis was performed.

[2] = tested on: chronic pancreatitis stellate cells (hCP); test: Transwell migration assay with SDF-1, chronic pancreatitis stellate cells; type: cell-based, human; details: SDF-1 0.025 μM, 2 h; siRNA 100 nM 48 h, AMD3100 5-50 μM or INNO-406 10-100 nM 60 minutes
[3] = tested on: cerulein-induced pancreatic fibrosis; test: Cerulein-induced pancreatic fibrosis (chronic pancreatitis) mouse model, Picro-Sirius Red quantitation; type: in vivo, C57BL/6J mice; details: cerulein plus 120 mg INNO-406/kg per day oral gavage for 6 weeks; cerulein alone 16.39+/−3.08%, untreated 2.00+/−0.84%
From the text: There is no optimal animal model available for human pancreatitis-induced fibrosis, to date. However, a most commonly used experimental model of chronic pancreatitis (CP) partially recapitulating human disease is repeated injection of cerulein into mice (Ulmasov, B. et al. Am J Pathol. 183, 692-708 (2013)). C57BL/6 is the most frequently used mouse strain for this type of biomedical research. In our current experiments, C57BL/6J mice (2 months old male and female) were divided into 3 groups (each group consisted of 15 animals) as follows: (1) untreated mice (saline only); (2) mice treated with cerulein for 6 weeks (50 μg/kg hourly, 6 hourly injections in one day constituted one treatment, twice-weekly); (3) mice treated with cerulein (as above) plus 120 mg INNO-406/kg per day for 6 weeks (oral gavage). When 120 mg INNO-406/kg per day is administrated orally to the mice, the concentration of INNO-406 in the soft tissues is estimated to be 0.24 μM according to pharmacokinetic studies described previously (Kimura, S. et al. Blood., 106, 3948-3954 (2005); Yokota, A, et al. Blood, 109, 306-314 (2007)). […] Picro sirius red quantitation were performed using Leica Biosystem Tissue IA Optimizer web-based program that measures positive stained intensity per area at 10× magnification. […]

[4] = 120 mg INNO-406/kg per day orally to mice; estimated according to previously described pharmacokinetic studies; cited from earlier work

SMILES	SDF-1/CXCR4-induced chemotaxis (chemotactic index) [1]	SDF-1/CXCR4-induced chemotaxis (chemotactic index) [2]	pancreatic fibrosis (Picro-Sirius Red positive stained area per total area) [3]	concentration of INNO-406 in the soft tissues [4] [nM]
c1cc(CN2CCCNCCNCCCNCC2)ccc1CN1CCCNCCNCCCNCC1 [AMD3100]	could be blocked	could be blocked	–	–
Cc1ccc(NC(=O)c2ccc(CN3CC[C@H](N(C)C)C3)c(C(F)(F)F)c2)cc1Nc1nccc(-c2cncnc2)n1 [INNO-406, Bafetinib]	–	–	7.50+/−4.77%	240
